From ChEMBL document CHEMBL4342421, “Current scenario of tetrazole hybrids for antibacterial activity” (Eur J Med Chem, 2019)
≈ marks a conversion by molar mass, not a printed value.

Columns and labels:
Format in all cases: functional
Pseudomonas aeruginosa = experiment: Antimicrobial activity against Pseudomonas aeruginosa
Aspergillus niger = experiment: Antifungal activity against Aspergillus niger
Candida albicans = experiment: Antifungal activity against Candida albicans
Staphylococcus aureus = experiment: Antimicrobial activity against Staphylococcus aureus
Escherichia coli = experiment: Antimicrobial activity against Escherichia coli
Bacillus subtilis = experiment: Antimicrobial activity against Bacillus subtilis

SMILES	MIC (Pseudomonas aeruginosa) [mg/L]	MIC (Aspergillus niger) [mg/L]	MIC (Candida albicans) [mg/L]	MIC (Staphylococcus aureus) [mg/L]	MIC (Escherichia coli) [mg/L]	MIC (Bacillus subtilis) [mg/L]
COc1cc(Cc2cnc(N)nc2N)cc(OC)c1OC [TRIMETHOPRIM]	500 (≈ 1720 µM)	–	–	250 (≈ 861 µM)	125 (≈ 431 µM)	–
Fc1ccc2c(c1)sc1nc(-c3cc4ccccc4n4nnnc34)c(NCCc3ccccc3)n12	> 320	–	–	> 320	> 320	–
N#Cc1cn2c(NCCc3ccccc3)c(-c3cc4ccccc4n4nnnc34)nc2s1	> 320	–	–	> 320	> 320	–
N#Cc1cn2c(NC3CCCCC3)c(-c3cc4ccccc4n4nnnc34)nc2s1	> 320	–	–	> 320	> 320	–
c1cc(-c2nnn[nH]2)cc(-c2nnn[nH]2)c1	125 to 1000 (≈ 584 to 4670 µM)	–	–	125 to 1000 (≈ 584 to 4670 µM)	125 to 1000 (≈ 584 to 4670 µM)	–
COc1ccc(C(=O)/C=C/c2cc3ccc(C)cc3n3nnnc23)cc1	6.25 to 100 (≈ 18.1 to 290 µM)	6.25 to 100 (≈ 18.1 to 290 µM)	6.25 to 100 (≈ 18.1 to 290 µM)	6.25 to 100 (≈ 18.1 to 290 µM)	6.25 to 100 (≈ 18.1 to 290 µM)	–
Cc1ccc2c(c1)cc(/C=C/C(=O)c1cccs1)c1nnnn12	6.25 to 100 (≈ 19.5 to 312 µM)	6.25 to 100 (≈ 19.5 to 312 µM)	6.25 to 100 (≈ 19.5 to 312 µM)	6.25 to 100 (≈ 19.5 to 312 µM)	6.25 to 100 (≈ 19.5 to 312 µM)	–
COc1ccc(Nc2c(-c3cc4ccccc4n4nnnc34)nc3sc(C#N)cn23)cc1	> 320	–	–	> 320	> 320	–
O=c1c(OCc2nnn[nH]2)c(-c2ccc(F)cc2)oc2cc(Cl)cc(Cl)c12	50 to 400 (≈ 123 to 982 µM)	–	–	50 to 400 (≈ 123 to 982 µM)	50 to 400 (≈ 123 to 982 µM)	50 to 400 (≈ 123 to 982 µM)
O=c1c(OCc2nnn[nH]2)c(-c2ccc(F)cc2)oc2cc(Cl)ccc12	50 to 400 (≈ 134 to 1070 µM)	–	–	50 to 400 (≈ 134 to 1070 µM)	50 to 400 (≈ 134 to 1070 µM)	50 to 400 (≈ 134 to 1070 µM)
Cc1ccc2cc(/C=C/C(=O)c3ccccn3)c3nnnn3c2c1	6.25 to 100 (≈ 19.8 to 317 µM)	6.25 to 100 (≈ 19.8 to 317 µM)	6.25 to 100 (≈ 19.8 to 317 µM)	6.25 to 100 (≈ 19.8 to 317 µM)	6.25 to 100 (≈ 19.8 to 317 µM)	–

Now from value to molecule:

MIC (Pseudomonas aeruginosa) [mg/L]	MIC (Aspergillus niger) [mg/L]	MIC (Candida albicans) [mg/L]	MIC (Staphylococcus aureus) [mg/L]	MIC (Escherichia coli) [mg/L]	MIC (Bacillus subtilis) [mg/L]	SMILES
6.25 to 100 (≈ 19.8 to 317 µM)	6.25 to 100 (≈ 19.8 to 317 µM)	6.25 to 100 (≈ 19.8 to 317 µM)	6.25 to 100 (≈ 19.8 to 317 µM)	6.25 to 100 (≈ 19.8 to 317 µM)	–	Cc1ccc2c(c1)cc(/C=C/C(=O)c1ccccn1)c1nnnn12
3.12 to 100 (≈ 7.41 to 237 µM)	3.12 to 100 (≈ 7.41 to 237 µM)	3.12 to 100 (≈ 7.41 to 237 µM)	3.12 to 100 (≈ 7.41 to 237 µM)	3.12 to 100 (≈ 7.41 to 237 µM)	–	Cc1ccc2cc(C3CC(c4ccc(Cl)cc4)=NN3C(N)=S)c3nnnn3c2c1 (stereo unspecified)
3.12 to 100 (≈ 8.07 to 258 µM)	3.12 to 100 (≈ 8.07 to 258 µM)	3.12 to 100 (≈ 8.07 to 258 µM)	3.12 to 100 (≈ 8.07 to 258 µM)	3.12 to 100 (≈ 8.07 to 258 µM)	–	Cc1ccc2cc(C3CC(c4ccccc4)=NN3C(N)=S)c3nnnn3c2c1 (stereo unspecified)
3.12 to 100 (≈ 7.94 to 254 µM)	3.12 to 100 (≈ 7.94 to 254 µM)	3.12 to 100 (≈ 7.94 to 254 µM)	3.12 to 100 (≈ 7.94 to 254 µM)	3.12 to 100 (≈ 7.94 to 254 µM)	–	Cc1ccc2c(c1)cc(C1CC(c3cccs3)=NN1C(N)=S)c1nnnn12 (stereo unspecified)
3.12 to 100 (≈ 8.04 to 257 µM)	3.12 to 100 (≈ 8.04 to 257 µM)	3.12 to 100 (≈ 8.04 to 257 µM)	3.12 to 100 (≈ 8.04 to 257 µM)	3.12 to 100 (≈ 8.04 to 257 µM)	–	Cc1ccc2c(c1)cc(C1CC(c3ccccn3)=NN1C(N)=S)c1nnnn12 (stereo unspecified)
–	–	–	–	7.75 to 35.4 (≈ 15.5 to 70.9 µM)	7.75 to 35.4 (≈ 15.5 to 70.9 µM)	COc1ccc(/C=C2\SC(=O)N(Cc3ccc(-c4ccccc4-c4nnn[nH]4)cc3)C2=O)cc1OC
3.12 to 100 (≈ 8.04 to 257 µM)	3.12 to 100 (≈ 8.04 to 257 µM)	3.12 to 100 (≈ 8.04 to 257 µM)	3.12 to 100 (≈ 8.04 to 257 µM)	3.12 to 100 (≈ 8.04 to 257 µM)	–	Cc1ccc2cc(C3CC(c4ccccn4)=NN3C(N)=S)c3nnnn3c2c1 (stereo unspecified)
6.25 to 100 (≈ 17.9 to 287 µM)	6.25 to 100 (≈ 17.9 to 287 µM)	6.25 to 100 (≈ 17.9 to 287 µM)	6.25 to 100 (≈ 17.9 to 287 µM)	6.25 to 100 (≈ 17.9 to 287 µM)	–	Cc1ccc2cc(/C=C/C(=O)c3ccc(Cl)cc3)c3nnnn3c2c1
–	–	–	–	7.75 to 35.4 (≈ 15.5 to 70.9 µM)	7.75 to 35.4 (≈ 15.5 to 70.9 µM)	COc1cc(/C=C2\SC(=O)N(Cc3ccc(-c4ccccc4-c4nnn[nH]4)cc3)C2=O)cc(OC)c1
–	–	–	–	7.75 to 35.4 (≈ 15.5 to 70.9 µM)	7.75 to 35.4 (≈ 15.5 to 70.9 µM)	COc1ccc(/C=C2\SC(=O)N(Cc3ccc(-c4ccccc4-c4nnn[nH]4)cc3)C2=O)c(OC)c1
–	–	–	–	22.4 (≈ 40 µM)	24.8 (≈ 44.3 µM)	c1ccc(C(c2ccccc2)(c2ccccc2)n2nnnc2-c2ccccc2-c2ccc(CNn3cnnc3)cc2)cc1
3.12 to 100 (≈ 7.94 to 254 µM)	3.12 to 100 (≈ 7.94 to 254 µM)	3.12 to 100 (≈ 7.94 to 254 µM)	3.12 to 100 (≈ 7.94 to 254 µM)	3.12 to 100 (≈ 7.94 to 254 µM)	–	Cc1ccc2cc(C3CC(c4cccs4)=NN3C(N)=S)c3nnnn3c2c1 (stereo unspecified)
3.12 to 100 (≈ 8.07 to 258 µM)	3.12 to 100 (≈ 8.07 to 258 µM)	3.12 to 100 (≈ 8.07 to 258 µM)	3.12 to 100 (≈ 8.07 to 258 µM)	3.12 to 100 (≈ 8.07 to 258 µM)	–	Cc1ccc2c(c1)cc(C1CC(c3ccccc3)=NN1C(N)=S)c1nnnn12 (stereo unspecified)
–	–	–	–	7.75 to 35.4 (≈ 14.6 to 66.9 µM)	7.75 to 35.4 (≈ 14.6 to 66.9 µM)	COc1cc(/C=C2\SC(=O)N(Cc3ccc(-c4ccccc4-c4nnn[nH]4)cc3)C2=O)cc(OC)c1OC
